According to patent publication US11338026B2, “Identification of immunologically protective neo-epitopes for the treatment of cancers” (THE UNIVERSITY OF CONNECTICUT, priority 2014, dated 2022):
Where two headings read alike, the source gives them in different places. Peptide text beside a SMILES is read from it.

Experiments:
[1] = system: CD8+ cells; assay: Intracellular IFN-γ assay by FACS (ICS) on lymphocytes of immunized mice; type: in vivo, BALB/c mice; conditions: for immunogenicity of WT counterpart (functional effector T cells): mice immunized with the WT counterpart of the named neo-epitope
Method: Intracellular IFN-γ assay by FACS and ELISPOT. Lymphocytes were incubated either with or without 1-10 μg/ml peptide. GolgiPlug (BD Biosciences, San Jose, Calif.) was added 1 h later. After incubation of 12 to 16 h, cells were stained for CD44 (clone IM7), CD4 (clone GK1.5) and CD8 (clone 53-6.7) (BD Biosciences, San Jose, Calif.), fixed and permeabilized using the Cytofix/Cytoperm™ kit (BD Biosciences, San Jose, Calif.), and stained for intracellular IFN-γ using Phycoerythrin-conjugated anti-mouse IFN-γ (clone XMG1.2, BD Biosciences, San Jose, Calif.). Cells were stained with 1 μl antibody/million cells in 50 μl staining buffer (PBS with 1% bovine serum albumin) and incubated for 20 min at 4° C. in the dark, or according to the manufacturer's instructions. Cells without peptide stimulation were used as a negative control, and the values for these controls was very close to the values seen with the negative control peptide. Typically, 95,000-129,000 lymphocytes (14,500-17,000 CD8+CD4− cells) were acquired. The background is consistently very low (10% of the signal).
(§1) All 18 peptides were used to immunize BALB/c mice. The draining lymph nodes (dLNs) of immunized mice were harvested one week after the single immunization, and the cells were stimulated in vitro for 16 h without any added peptide, the mutant peptide used for immunization, or the corresponding wild type peptide. The CD8+ cells were analyzed for activation (CD44+) and effector function (intracellular IFNγ+). (see Materials and Methods regarding the details of FACS analysis.) All possible patterns of immune-reactivity were observed (FIG. 3A): no immune response (12/18), a mutant peptide-specific, i.e. tumor-specific immune response (5/18), and a cross-reactive response between the mutant and corresponding wild type peptides (1/18).

[2] = system: CD8+ cells; assay: IFNγ ELISPOT on CD8+ cells of immunized mice; type: in vivo, BALB/c mice; conditions: for ELISpot: mice immunized with mutant peptide; for CD8 T cell response of immunized mice: text, ELISPOT
Method: For the ELISPOT assays, the negative controls were CD8+ cells from immunized mice without peptide stimulation. […] The magnitude of responses was rated by mean spot numbers per million CD8+ cells: 5-10 (+); 11-20 (++); 21-50 (+++); 51-100(++++) and >100(+++++).
as §1

[3] = target: T1, H-2 K^d (Mus musculus, UniProt P01902); assay: Binding assays: inhibition of binding of a radiolabeled standard peptide to purified MHC molecules
T1 sequence (P01902 22-368): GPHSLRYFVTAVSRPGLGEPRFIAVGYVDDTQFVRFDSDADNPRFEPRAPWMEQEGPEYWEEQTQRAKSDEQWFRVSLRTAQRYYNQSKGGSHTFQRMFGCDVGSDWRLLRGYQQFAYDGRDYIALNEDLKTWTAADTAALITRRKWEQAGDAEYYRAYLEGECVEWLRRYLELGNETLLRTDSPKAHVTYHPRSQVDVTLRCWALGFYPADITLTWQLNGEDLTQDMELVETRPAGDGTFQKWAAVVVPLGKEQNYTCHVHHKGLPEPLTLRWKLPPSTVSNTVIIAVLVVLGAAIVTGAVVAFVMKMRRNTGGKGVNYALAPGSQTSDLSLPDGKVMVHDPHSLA
T1 sequence (P01887 21-119 partner): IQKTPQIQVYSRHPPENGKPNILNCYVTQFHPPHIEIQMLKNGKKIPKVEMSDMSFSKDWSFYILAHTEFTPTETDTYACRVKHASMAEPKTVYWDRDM
Method: Binding assays. Binding of peptides to H-2 K^d was determined using quantitative assays based on the inhibition of binding of a radiolabeled standard peptide to purified MHC molecules essentially as described previously. […] Under the conditions utilized, where [label]<[MHC] and IC50≥[MHC], the measured IC50 values are reasonable approximations of the dissociation constant values.

[4] = system: CMS5; assay: Tumor challenge / tumor rejection after peptide immunization, CMS5; type: in vivo, BALB/c mice
Method: Tumor challenge and representation of tumor growth. AUC as a tool to measure tumor growth has been described previously. Briefly, AUC was calculated by selecting “Curves & Regression” and then “Area under curve” from the “analyze” tool, using the Prism 5.0 (GraphPad Software, Inc., La Jolla, Calif.). Grubb' test was used to remove up to one outlier from each group.
Depletion of T cell subsets. Immunized mice were depleted of CD8 cells using anti-CD8 rat IgG2b monoclonal antibody 2.43), or depleted of CD4 cells using anti-CD4 rat IgG2b monoclonal antibody GK1.5. Depleting antibodies were given in PBS intraperitoneally two days before tumor challenge and every seven days for the duration of the experiment. First three injections of depleting antibodies were 250 μg per mouse and the later injections were 500 μg per mouse. For treatment with antagonistic antibodies, mice were treated with anti-CD25 antibody (clone PC61, 250 μg, two days before tumor challenge) or anti-CTLA-4 antibody (clone 9D9, 100 μg, seven days before and every three days after tumor challenge). The appropriate T cell sub-sets were depleted by over 95%.
Lack of immuno-protective activity of the strongest K^d-binding neo-epitopes. […]

## CC(C)[C@H](NC(=O)[C@H](CO)NC(=O)[C@@H](NC(=O)[C@H](CCCCN)NC(=O)[C@H](C)NC(=O)[C@H](CCCCN)NC(=O)[C@H](CO)NC(=O)[C@@H](NC(=O)[C@H](Cc1ccccc1)NC(=O)[C@H](Cc1ccc(O)cc1)NC(=O)CN)C(C)C)[C@@H](C)O)C(=O)O (racemic) [Abr]
[1]
  immunogenicity of WT counterpart (functional effector T cells): elicited functional effector T cells in vivo

## CC(C)C[C@H](NC(=O)[C@H](Cc1ccc(O)cc1)NC(=O)[C@@H](N)CC(C)C)C(=O)N[C@@H](CC(=O)O)C(=O)N[C@@H](CO)C(=O)N[C@@H](CCCCN)C(=O)N[C@@H](CO)C(=O)N[C@@H](CC(=O)O)C(=O)N[C@H](C(=O)N[C@H](C(=O)N[C@H](C(=O)O)C(C)C)[C@@H](C)O)[C@@H](C)O [Alms1.1]
[1]
  immunogenicity of WT counterpart (functional effector T cells): elicited functional effector T cells in vivo

## CC(C)C[C@H](NC(=O)[C@@H]1CCCN1C(=O)[C@@H](NC(=O)[C@H](CCCNC(=N)N)NC(=O)[C@H](CCCCN)NC(=O)[C@H](CC(C)C)NC(=O)[C@H](CC(C)C)NC(=O)[C@@H]1CCCN1C(=O)[C@@H](NC(=O)[C@H](Cc1ccc(O)cc1)NC(=O)[C@@H](N)Cc1ccc(O)cc1)C(C)C)C(C)C)C(=O)O [Alms1.2] (H-YYVPLLKRVPL-OH)
[1]
  immunogenicity of WT counterpart (functional effector T cells): elicited functional effector T cells in vivo
[2]
  ELISpot: ++ (10-20 spots/10^6 CD8 = ++)
[3]
  IC50: 1480 nM
[3]; mutant peptide, read-out: Measured IC50 for K^d (Mut/WT): Mut
  IC50: 421 nM

## CSCC[C@H](NC(=O)[C@@H]1CCCN1C(=O)[C@@H](NC(=O)[C@H](Cc1ccc(O)cc1)NC(=O)[C@@H](N)CC(=O)O)C(C)C)C(=O)N[C@@H](CCC(=O)O)C(=O)N[C@@H](CCC(N)=O)C(=O)N1CCC[C@H]1C(=O)N[C@@H](CCCNC(=N)N)C(=O)O [Alkbh6.2, D(y/D)VPMEQPR] (H-DYVPMEQPR-OH; N-terminus and C-terminus assumed)
[1]
  CD8 T cell response by intracellular cytokine assay: un-detectable by the intracellular cytokine assay
[2]
  ELISpot: ++ (10-20 spots/10^6 CD8 = ++)
  CD8 T cell response of immunized mice: modest CD8 T cell response
[4]
  protection from tumor growth / tumor rejection: representative neo-epitopes that do

## CSCC[C@H](NC(=O)[C@H](CC(C)C)NC(=O)CNC(=O)[C@@H]1CCCN1C(=O)[C@H](Cc1ccccc1)NC(=O)[C@@H](NC(=O)[C@@H](N)CCC(N)=O)C(C)C)C(=O)N[C@@H](CCC(=O)O)C(=O)N[C@@H](CC(C)C)C(=O)O [Atxn10.1] (H-QVFPGLMEL-OH; N-terminus and C-terminus assumed)
[1]
  CD8 T cell response by intracellular cytokine assay: un-detectable by the intracellular cytokine assay
[2]
  ELISpot: +++ (21-50 spots/10^6 CD8 = +++)
  CD8 T cell response of immunized mice: modest CD8 T cell response
[4]
  protection from tumor growth / tumor rejection: representative neo-epitopes that do
[3]; WT counterpart peptide, read-out: Measured IC50 for K^d (Mut/WT): WT
  IC50: 7050 nM

## SIINFEKL (listed as Gallus gallus) [reference compound]
[1]; 100 μg peptide once or twice with a 29-day interval
  CD8 response after second immunization (Prime vs Boost): amplified by a second immunization

## CC[C@H](C)[C@H](NC(=O)[C@H](Cc1ccc(O)cc1)NC(=O)[C@@H](N)[C@@H](C)O)C(=O)N[C@@H](CCCNC(=N)N)C(=O)N1CCC[C@H]1C(=O)N[C@@H](Cc1ccccc1)C(=O)N[C@@H](CCC(=O)O)C(=O)N[C@H](C(=O)N[C@@H](CCCCN)C(=O)N[C@H](C(=O)O)C(C)C)[C@@H](C)O [Ccdc85c, TYIRP(f/L)ETKV] (H-TYIRPFETKV-OH)
[1]
  immunogenicity of WT counterpart (functional effector T cells): elicited functional effector T cells in vivo
